Data from PubChem BioAssay (NCI).
“And” between values parts separate entries of the source, which are not always exact repeats. Equal entries are not always repeated.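 Following 48 hours of exposure in 96-well plates, responses at five concentrations were used to interpolate endpoints linearly. GI50: concentration for 50% inhibition of growth. At the TGI there is no net growth.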

Assays:
Experiment in all cases: NCI-60 cell line screen, 48 h
MALME-3M melanoma = system: MALME-3M melanoma
U251 CNS = system: U251 CNS
NCI/ADR-RES ovarian = system: NCI/ADR-RES ovarian
ACHN renal = system: ACHN renal
SK-OV-3 ovarian = system: SK-OV-3 ovarian
DU-145 prostate = system: DU-145 prostate
SN12C renal = system: SN12C renal
NCI-H23 lung = system: NCI-H23 lung
RXF 393 renal = system: RXF 393 renal
OVCAR-4 ovarian = system: OVCAR-4 ovarian

Row | Structure (SMILES) | GI50 (MALME-3M melanoma) | TGI (MALME-3M melanoma) | GI50 (U251 CNS) | TGI (U251 CNS) | GI50 (NCI/ADR-RES ovarian) | TGI (NCI/ADR-RES ovarian) | GI50 (ACHN renal) | TGI (ACHN renal) | GI50 (SK-OV-3 ovarian) | TGI (SK-OV-3 ovarian) | GI50 (DU-145 prostate) | TGI (DU-145 prostate) | GI50 (SN12C renal) | TGI (SN12C renal) | GI50 (NCI-H23 lung) | TGI (NCI-H23 lung) | GI50 (RXF 393 renal) | TGI (RXF 393 renal) | GI50 (OVCAR-4 ovarian) | TGI (OVCAR-4 ovarian)
1 | O=C1c2cccnc2C(=O)c2c1c(C(=O)NCCCN1CCCCC1)c1ccccn21 | 0.226 µM | 0.684 µM | 1.42 µM | 3.21 µM | 2.08 µM | 7.37 µM | 0.464 µM | 2.84 µM | 2.06 µM | 6.7 µM | 1.2 µM | 2.61 µM | 0.472 µM | 1.84 µM | 0.436 µM | 2.75 µM | 1.28 µM | 3.4 µM | 0.31 µM | 1.32 µM
2 | Nc1nc(OCc2ccccc2)c2[nH]cnc2n1 | 28 µM and 23.3 µM | 264 µM and 136 µM | 37.9 µM and 35.9 µM | 400 µM and 204 µM | 97.2 µM and 84.9 µM | 414 µM | 23.1 µM and 23.4 µM | 244 µM and 125 µM | 21.8 µM and 20.8 µM | 71.9 µM and 160 µM and 60 µM | 33.6 µM and 30.1 µM | 266 µM | 29.4 µM and 26.4 µM | 400 µM and 193 µM | 31.6 µM and 46.9 µM | 326 µM and 229 µM | 14.4 µM and 22.1 µM | 94.5 µM and 169 µM and 145 µM | 41.2 µM and 43.4 µM | 365 µM and 528 µM
3 | O=S(=O)(Nc1cc(Sc2cccc3cccnc23)c(O)c2ccccc12)c1ccc(F)cc1 | 1.98 µM | 4.94 µM | 0.839 µM | 10.4 µM | 0.731 µM | 5.62 µM | 1.34 µM | 7.78 µM | 3.23 µM | 13.4 µM | 1.27 µM | 3.81 µM | 0.97 µM | 3.61 µM | 1.46 µM | 4.32 µM | 1.97 µM | 5.43 µM | 0.504 µM | 1.8 µM
4 | CCc1ccc2c(c1)N(CCO)C1=C(C(=O)OC1)C2c1cccc(Br)c1 (stereo not given) | 2.58 µM | 25.6 µM | 0.494 µM | 14.5 µM | 0.278 µM | 2.21 µM | 1.61 µM | 20.4 µM | 0.42 µM | 10.1 µM | 0.658 µM | 11.3 µM | 1.35 µM | 18.9 µM | 0.66 µM | 15.6 µM | 0.216 µM | 1.82 µM | 0.738 µM | 17.3 µM
5 | CC(=O)/C=C/c1cn(C(=O)OC(C)(C)C)c2ccc(Br)cc12 | 52.1 µM | > 89.2 µM | 12.5 µM | 25.5 µM | 17.9 µM | 45.4 µM | 11.6 µM | 24.8 µM | 20.6 µM | 46.7 µM | 14.1 µM | 45.1 µM | 13.8 µM | 36.4 µM | 19.8 µM | 42 µM | 15.6 µM | 37 µM | 25.7 µM | > 100 µM
6 | NNC(=O)CS(=O)(=O)Nc1ncccn1 |  | > 100 µM |  | > 100 µM |  | > 100 µM |  | > 100 µM |  | > 100 µM |  | > 100 µM |  | > 100 µM |  | > 100 µM |  | > 100 µM |  | > 100 µM
7 | O=C(/C=C\c1cccc([N+](=O)[O-])c1)/C=C/c1cccc([N+](=O)[O-])c1 | 37.9 µM | > 100 µM | 2.06 µM | 5.21 µM | 20.2 µM | > 100 µM | 4.47 µM | > 100 µM | 20 µM | > 100 µM | 3.49 µM | 56 µM | 67 µM | > 100 µM | 4.43 µM | > 100 µM | 2.55 µM | 6.57 µM | > 100 µM | > 100 µM
8 | O=C1OCC2=C1C(c1ccc(Cl)c(Cl)c1)c1cc3c(cc1N2CCO)OCCO3 (stereo not given) | 0.249 µM | 25.8 µM | 0.206 µM | 12.7 µM | 0.239 µM | 3 µM | 0.334 µM | 44.9 µM | 0.215 µM | 2.32 µM | 0.211 µM | 6.53 µM | 0.688 µM | 20 µM | 0.279 µM | 21.7 µM | 0.116 µM | 0.751 µM | 0.382 µM | > 50 µM
9 | Fc1ccc(/C=N/n2c(-c3ccc(F)c(Cl)c3)nn(CNc3ccccc3C(F)(F)F)c2=S)cc1 | 27.2 µM | 95.7 µM | 69.1 µM | > 100 µM | 41.2 µM | > 100 µM | 81.1 µM | > 100 µM | > 100 µM | > 100 µM | > 100 µM | > 100 µM | 39.3 µM | > 100 µM | 61.7 µM | > 100 µM | 59.4 µM | > 100 µM | 57.4 µM | > 100 µM
10 | O=C(O)c1ccc(C(=O)c2ccccc2)c(C(=O)O)c1 |  | > 100 µM |  | > 100 µM |  | > 100 µM |  | > 100 µM |  | > 100 µM |  | > 100 µM |  | > 100 µM |  | > 100 µM |  | > 100 µM |  | > 100 µM
11 | CN1C(=O)N(C)C2C1NN=c1s/c(=C\c3ccc(C(F)(F)F)cc3)c(=O)n12 (stereo not given) | 8.33 µM | > 100 µM | 0.569 µM | 14.4 µM | 0.696 µM | 37.3 µM | 2.08 µM | 38.5 µM | 3.96 µM | 46.9 µM | 2.96 µM | > 100 µM | 3.89 µM | > 100 µM | 2.49 µM | > 100 µM | 1.73 µM | 6.77 µM | > 100 µM | > 100 µM
12 | O=C1c2ccccc2-c2cc([N+](=O)[O-])c([N+](=O)[O-])cc21 |  | 4.95 µM |  | 2.93 µM |  | 9.64 µM |  | 3.07 µM |  | 6.51 µM |  | 3.28 µM |  | 3.42 µM |  | 3.25 µM |  | 2.64 µM |  | 3.31 µM
